# Columns and labels:
# Type in all cases: cell-based
# Conditions in all cases: 1.5 μM each, 3 days
# [1] = test system: COX-2; experiment: COX-2 mRNA expression relative to GAPDH, bovine primary chondrocytes in alginate beads (real-time PCR)
# Description: (§1) The skin was removed from the foot. The articulation was opened transversally. Intra articular ligaments were transected. The opened articulation was washed with phosphate buffered saline. With a scalpel blade, full thickness slices of cartilage were dissected out and collected in DMEM high glucose with 10 mM hepes and 1% Penicillin-Streptomycin. Slices of cartilage were washed in DMEM high glucose with 10 mM hepes and 1% Penicillin-Streptomycin.
# (§2) Cartilage was then digested successively by 0.5 mg/ml of hyluronidase during 30 minutes, 1.0 mg/ml of pronase E during 60 minutes and 1.0 mg/ml of collagenase overnight under slow agitation.
# (§3) After the enzymatic incubation, the cell suspension was filtered through a 70 μm cell strainer to separate cell cluster and remove tissue debris. The cell suspension was centrifuged to pellet the cells. […]
# (§4) Total RNA was isolated from pool of 40 beads and isolated using RNeasy kit from Qiagen. cDNA was obtained by reverse transcription of RNA with the Primescript 1st strand cDNA Synthesis kit from Takara. mRNA expression of ADAMTS-5, COX-2, MMP-13 and GAPDH were quantified in real-time PCR (SYBR Green)
# (§5) Data were expressed as fold change in gene expression compared to negative control (cells cultured in complete medium).
# (§6) Data were expressed as median±S.E.Median (2 experiments of 3 replicates each). […]
# [2] = test system: ADAMTS-5; experiment: ADAMTS-5 mRNA expression relative to GAPDH, bovine primary chondrocytes in alginate beads (real-time PCR)
# Description: as §1, §2, §3, §4, §5, §6
# [3] = test system: MMP-13; experiment: MMP-13 mRNA expression relative to GAPDH, bovine primary chondrocytes in alginate beads (real-time PCR)
# Description: as §1, §2, §3, §4, §5, §6
# [4] = disease conditions (IL1a 10 ng/ml), vs IL1a
# [5] = normal conditions (absence of IL1a), vs CTL-
smiles,measurement,setting,value
"O=c1c(O)c(-c2ccc(O)c(O)c2)oc2cc(O)cc(O)c12 [Quercetin, quercetin]",COX-2 mRNA expression relative to GAPDH,[1]; [4],decrease expression of COX-2
same,COX-2 mRNA expression relative to GAPDH,[1]; [5],reduce expression of COX-2
same,ADAMTS-5 mRNA expression relative to GAPDH,[2]; [4],decrease expression of ADAMTS-5
same,ADAMTS-5 mRNA expression relative to GAPDH,[2]; [5],decrease expression of ADAMTS-5
same,MMP-13 mRNA expression relative to GAPDH,[3]; [4],decrease expression of MMP-13
same,MMP-13 mRNA expression relative to GAPDH,[3]; [5],decrease expression of MMP-13

# Reference: patent publication US20250325576A1, “COMPOSITIONS FOR USE IN CARTILAGE BREAKDOWN” (Société des Produits Nestlé S.A., priority 2013, published 2025)
